# According to US20190364896A1, “SYNERGISTIC WEED CONTROL FROM APPLICATIONS OF PYRIDINE CARBOXYLIC ACID HERBICIDES AND ALS INHIBITORS” (Dow AgroSciences LLC, priority 2014, published 2019):
# Read-outs that look alike come from different tables or passages of the source.
# Tests used:
# Test in all cases: Postemergence herbicidal activity, greenhouse trial (visual injury 0-100%)
# Format in all cases: in vivo
# [1] = tested on: rutabaga (Brassica napus var. napobrassica, BRSNA); conditions: 17.5 g ai/ha
# Protocol: Seeds of the desired test plant species were planted in Sun Gro MetroMix® 306 planting mixture, which typically has a pH of 6.0 to 6.8 and an organic matter content of about 30 percent, in plastic pots with a surface area of 103.2 square centimeters (cm^2). […] The plants were grown for 7-36 days (d) in a greenhouse with an approximate 14-hour (h) photoperiod which was maintained at about 23° C. during the day and 22° C. during the night. Nutrients and water were added on a regular basis and supplemental lighting was provided with overhead metal halide 1000-Watt lamps as necessary. The plants were employed for testing when they reached the second or third true leaf stage.
# Weighed amounts of technical material were dissolved in a volume of 97:3 volume per volume (v/v) acetone/dimethyl sulfoxide (DMSO) to stock solutions. […] The concentrated stock solutions were diluted with an aqueous mixture of 1.5% v/v of Agri-dex crop oil concentrate to provide the appropriate application rates. Compound requirements are based upon a 12 milliliter (mL) application volume at a rate of 187 liters per hectare (L/ha). Spray solutions of the experimental compound mixtures were prepared by adding the stock solutions to the appropriate amount of dilution solution to form a 12 mL spray solution in two-way combinations. Formulated compounds were applied to the plant material with an overhead Mandel track sprayer equipped with 8002E nozzles calibrated to deliver 187 L/ha over an application area of 0.503 square meters (m^2) at a spray height of 18 inches (43 centimeters (cm)) above average plant canopy. Control plants were sprayed in the same manner with the solvent blank. Application rates for component (a) are in g ae/ha, and application rates for component (b) are in g ai/ha.
# The treated plants and control plants were placed in a greenhouse as described above and watered by sub-irrigation to prevent wash-off of the test compounds. After 20-22 d, the condition of the test plants as compared with that of the control plants was determined visually and scored on a scale of 0 to 100 percent where 0 corresponds to no injury and 100 corresponds to complete kill. The condition of the test plants was compared with that of the control plants as determined visually and scored on a scale of 0 to 100 percent, where 0 corresponds to no injury and 100 corresponds to complete kill. Colby's equation was used to determine the herbicidal effects expected from the mixtures.
# Compound 1 was formulated as an EC and was combined with imazamox, imazamethabenz, imazapic, imazapyr or imazethapyr. The mixtures were applied to winter wheat (TRZAW) and/or maize (ZEAMX), and the phytotoxicity of the herbicidal compositions was measured. In addition, the efficacy of the herbicidal compositions on blackgrass (Alopecurus myosuroides, ALOMY), wild oat (Avena fatua, AVEFA), winter rape (Brassica napus, BRSNW), spring rape (Brassica napus, BRSNN), turnip (Brassica rapa, BRSRR), thistle (Cirsium arvense, CIRAR), large crabgrass (Digitaria sanguinalis, DIGSA), pigweed (Amaranthus retrollexus, AMARE), common lambsquarters (Chenopodium album L., CHEAL), poinsettia (Euphorbia heterophylla, EPHHL), ivyleaf morning-glory (Ipomoea hederacea, IPOHE), kochia (Kochia scoparia, KCHSC), wild buckwheat (Polygonum convolvulus, POLCO), grain sorghum (Sorghum vulgare, SORVU), chickweed (Stellaria media, STEME), wild pansy (Viola tricolor, VIOTR), sunflower (Helianthus annuus, HELAN), giant foxtail (Setaria faberi, SETFA), soybean (Glycine max, GLXMA), rutabaga (Brassica napus var. napobrassica, BRSNA) and barnyardgrass (Echinochloa crus-galli, ECHCG) was evaluated.
# [2] = tested on: thistle (Cirsium arvense, CIRAR); conditions: Cirsium arvense, post-emergence; 17.5 g ai/ha; read-out: % visual injury Obs
# In short: (§1)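 Read-out is a visual 0–100% injury score against solvent-blank-sprayed controls, taken 20-22 d after treatment; expected mixture effects came from Colby's equation. Two-way combinations in 1.5% v/v crop oil concentrate were sprayed at 187 L/ha onto plants at the second or third true leaf stage.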
# [3] = tested on: barnyardgrass (Echinochloa crus-galli, ECHCG); conditions: Echinochloa crus-galli, post-emergence, 17.5 g ai/ha; read-out: % visual injury Obs
# In short: as §1
# [4] = tested on: blackgrass (Alopecurus myosuroides, ALOMY); conditions: 17.5 g ai/ha
# In short: as §1
# [5] = tested on: wild oat (Avena fatua, AVEFA); conditions: 17.5 g ai/ha
# In short: as §1
# [6] = tested on: wild pansy (Viola tricolor, VIOTR); conditions: Viola tricolor, post-emergence, read-out: % visual injury Obs
# In short: as §1
# [7] = tested on: winter rape (Brassica napus, BRSNW)
# [8] = tested on: large crabgrass (Digitaria sanguinalis, DIGSA); conditions: 17.5 g ai/ha
# [9] = tested on: sunflower (Helianthus annuus, HELAN); conditions: HELAN; bensulfuron 17.5 g ai/ha
# [10] = tested on: brown mustard (Brassica juncea, BRSJU); conditions: bensulfuron 17.5 g ai/ha
smiles,measurement,setting,value
"CCc1cnc(C2=NC(C)(C(C)C)C(=O)N2)c(C(=O)O)c1 (stereo not drawn) [Imazethapyr, imazethapyr]",% visual injury Obs,[1],20%
same,pest or weed control at 17.5 g/ha,[2],30%
same,pest or weed control at 17.5 g/ha,[3],70%
same,% visual injury Obs,[4],10%
same,% visual injury Obs,[5],10%
same,pest or weed control at 17.5 g/ha,[6]; 17.5 g ai/ha,5%
same,% visual injury Obs,[7]; 17.5 g ai/ha,75%
same,% visual injury Obs,[8],30%
COC(=O)c1ccccc1CS(=O)(=O)NC(=O)Nc1nc(OC)cc(OC)n1,% visual injury Obs,[9],10%
same,pest or weed control at 17.5 g/ha,"[6]; VIOTR, bensulfuron 17.5 g ai/ha",0%
same,% visual injury Obs,"[7]; BRSNW, bensulfuron 17.5 g ai/ha",70%
same,% visual injury Obs,[10],93%
